This note sets out measurements from publication PMC4786716, “Biophysical Characterization and Activity of Lymphostatin, a Multifunctional Virulence Factor of Attaching and Effacing Escherichia coli” (The Journal of Biological Chemistry, 2016).

The experiment concerns the target T1, lymphostatin (LifA; rLifA) (Escherichia coli, UniProt B7UI23).
T1 construct: gene E2348C_3234; full-length, C-terminal His6 tag kept, expressed in E. cloni (E. coli K-12) from pRham; 3229 residues as printed, 365 kDa, monomer
Kind of experiment: intrinsic tryptophan fluorescence titration (ex […] nm, em […] nm). Format: binding.

Regarding `CC(=O)N[C@H]1[C@@H](OP(=O)(O)OP(=O)(O)OC[C@H]2O[C@@H](n3ccc(=O)[nH]c3=O)[C@H](O)[C@@H]2O)O[C@H](CO)[C@@H](O)[C@@H]1O` [UDP-GlcNAc], binding was put at a Kd of 120 ± 30 µM.

As usually defined, the Kd is the concentration at which binding is half-saturated. A lower Kd goes with tighter binding.
